From patent US12448391B2, “Bicyclic derivatives for treating endoparasites” (Elanco Tiergesundheit AG, priority 2019, dated 2025)

Experiments:
D. immitis microfilariae = assay: Dog heart worm microfilariae motility assay; assay type: cell-based; details: Dirofilaria immitis, read-out: EC50 (motility inhibition)
H. contortus larvae = assay: H. contortus Larval Development Assay (Hc LDA); details: Haemonchus contortus, read-out: EC50 (motility inhibition)
Procedure: Ruminant Gastrointestinal (H. contortus Larval Development Assay (Hc LDA)):
H.c. eggs isolated from lamb fecal matter are allowed to hatch overnight. Test compounds are diluted in DMSO and added to a 96-well plate containing appropriate media. H.c. larvae are added to each well and plates are incubated for the desired time(s). Motility is assessed using an LCD camera imaging system. Percent motility inhibition values are generated relative to the average of the DMSO-only wells.

Caenorhabditis elegans = assay: C. elegans development assay (Ce DA); details: 48 h, read-out: EC90 (motility reduction)
Procedure: Caenorhabditis elegans (Ce): C. elegans development assay (Ce DA) measures the effect of compounds on developing nematodes. Eggs of C. elegans are deposited in a 384 well plate together with food (E. coli) and the treatment formulated in DMSO. Plates are incubated at 25° C. for 48 h to allow the development of nematodes up to the L4-stage. The effect of compounds is measured as motility reduction. Efficacy is expressed in % motility reduction compared to negative controls.

SMILES: O=C(NN1CCOc2ccccc21)c1cnc2c(-c3cc(Cl)cc(C(F)(F)F)n3)cccc2c1N1CCOCC1 [Example 5.22, 8-[4-chloro-6-(trifluoromethyl)-2-pyridyl]-N-(2,3-dihydro-1,4-benzoxazin-4-yl)-4-morpholino-quinoline-3-carboxamide]
- EC50 (D. immitis microfilariae): < 0.1 µg/mL
- EC50 (H. contortus larvae): < 1 µg/mL

SMILES: O=C(NN1CCc2ccccc21)c1cnc2c(-c3cc(F)cc(F)c3F)cccc2c1N1CCOCC1 [Example 5.24, N-indolin-1-yl-4-morpholino-8-(2,3,5-trifluorophenyl)quinoline-3-carboxamide]
- EC50 (D. immitis microfilariae): < 0.1 µg/mL
- EC50 (H. contortus larvae): < 1 µg/mL

SMILES: N#Cc1ccc2c(N3CCOCC3)c(C(=O)NN3CCOc4ccccc43)cnc2c1-c1cc(Cl)cc(Cl)c1 [Example 5.35, 7-cyano-8-(3,5-dichlorophenyl)-N-(2,3-dihydro-1,4-benzoxazin-4-yl)-4-morpholino-quinoline-3-carboxamide]
- EC90 (Caenorhabditis elegans): < 1 µg/mL

SMILES: O=C(NN1CCOc2ccccc21)c1cnc2c(-c3cc(F)cc(F)c3F)cccc2c1C1CC1 [Example 5.36, 4-cyclopropyl-N-(2,3-dihydro-1,4-benzoxazin-4-yl)-8-(2,3,5-trifluorophenyl)quinoline-3-carboxamide]
- EC90 (Caenorhabditis elegans): < 1 µg/mL

SMILES: O=C(NN1CCOc2ccccc21)c1cnc2c(-c3cc(F)c(F)c(F)c3)c(F)ccc2c1N1CCOCC1 [Example 5.41, N-(2,3-dihydro-1,4-benzoxazin-4-yl)-7-fluoro-4-morpholino-8-(3,4,5-trifluorophenyl)quinoline-3-carboxamide]
- EC90 (Caenorhabditis elegans): < 1 µg/mL

SMILES: O=C(NN1CCOc2ccccc21)c1cnc2c(-c3cc(F)cc(F)c3F)cccc2c1C1CCOCC1 [Example 5.45, N-(2,3-dihydro-1,4-benzoxazin-4-yl)-4-tetrahydropyran-4-yl-8-(2,3,5-trifluorophenyl)quinoline-3-carboxamide]
- EC90 (Caenorhabditis elegans): < 1 µg/mL

SMILES: O=C(NN1CCOc2ccccc21)c1cnc2c(-c3cc(Cl)cc(Cl)c3F)c(F)ccc2c1N1CCOCC1 [Example 5.47, 8-(3,5-dichloro-2-fluoro-phenyl)-N-(2,3-dihydro-1,4-benzoxazin-4-yl)-7-fluoro-4-morpholino-quinoline-3-carboxamide]
- EC90 (Caenorhabditis elegans): < 1 µg/mL

SMILES: O=C(NN1CCOc2ccccc21)c1cnc2c(-c3cc(Cl)c(F)c(Cl)c3F)c(F)ccc2c1N1CCOCC1 [Example 5.48, 8-(3,5-dichloro-2,4-difluoro-phenyl)-N-(2,3-dihydro-1,4-benzoxazin-4-yl)-7-fluoro-4-morpholino-quinoline-3-carboxamide]
- EC90 (Caenorhabditis elegans): < 1 µg/mL

SMILES: O=C(NN1CCOc2ccccc21)c1cnc2c(-c3cc(F)nc(F)c3F)cccc2c1N1CCOCC1 [Example 5.49, N-(2,3-dihydro-1,4-benzoxazin-4-yl)-4-morpholino-8-(2,3,6-trifluoro-4-pyridyl)quinoline-3-carboxamide]
- EC90 (Caenorhabditis elegans): < 1 µg/mL

SMILES: O=C(NN1CCc2ccccc21)c1cnc2c(-c3cc(Cl)c(F)c(Cl)c3F)c(F)ccc2c1N1CCOCC1 [Example 5.54, 8-(3,5-dichloro-2,4-difluoro-phenyl)-7-fluoro-N-indolin-1-yl-4-morpholino-quinoline-3-carboxamide]
- EC90 (Caenorhabditis elegans): < 1 µg/mL

SMILES: COC(C)c1c(C(=O)NN2CCOc3ccccc32)cnc2c(-c3cc(F)cc(F)c3F)cccc12 (centres unmarked) [Example 5.55, N-(2,3-dihydro-1,4-benzoxazin-4-yl)-4-(1-methoxyethyl)-8-(2,3,5-trifluorophenyl)quinoline-3-carboxamide]
- EC90 (Caenorhabditis elegans): < 1 µg/mL

SMILES: O=C(NN1CCOc2ccccc21)c1cnc2c(-c3cc(Cl)cc(Cl)c3)ncnc2c1N1CCOCC1 [Example 6.1, 4-(3,5-dichlorophenyl)-N-(2,3-dihydro-1,4-benzoxazin-4-yl)-8-morpholino-pyrido[3,2-d]pyrimidine-7-carboxamide]
- EC50 (D. immitis microfilariae): < 0.1 µg/mL
- EC50 (H. contortus larvae): < 1 µg/mL

SMILES: O=C(NN1CCOc2ccccc21)c1cnc2c(-c3cc(Cl)cc(Cl)c3)cncc2c1N1CCOCC1 [Example 7.1, 8-(3,5-dichlorophenyl)-N-(2,3-dihydro-1,4-benzoxazin-4-yl)-4-morpholino-1,6-naphthyridine-3-carboxamide]
- EC50 (D. immitis microfilariae): < 0.1 µg/mL
- EC50 (H. contortus larvae): < 1 µg/mL
